Reference: publication PMC6681697, “One-Step ^18F-Labeling and Preclinical Evaluation of Prostate-Specific Membrane Antigen Trifluoroborate Probes for Cancer Imaging” (Journal of Nuclear Medicine, 2019)
Like-named read-outs stand apart in the source and are kept apart here. Values belong to the molecule of their own block, whether it stands above or below them.

How the values were obtained:
PSMA = target: T1, PSMA (Homo sapiens, UniProt Q04609); assay: In vitro competition binding assay on LNCaP cells with ^18F-DCFPyL as radioligand
T1 construct: because it expresses PSMA endogenously and is commonly used to evaluate PSMA-targeting radiotracers; endogenous in cells; host or cells: LNCaP cells
T1 sequence (Q04609 whole entry): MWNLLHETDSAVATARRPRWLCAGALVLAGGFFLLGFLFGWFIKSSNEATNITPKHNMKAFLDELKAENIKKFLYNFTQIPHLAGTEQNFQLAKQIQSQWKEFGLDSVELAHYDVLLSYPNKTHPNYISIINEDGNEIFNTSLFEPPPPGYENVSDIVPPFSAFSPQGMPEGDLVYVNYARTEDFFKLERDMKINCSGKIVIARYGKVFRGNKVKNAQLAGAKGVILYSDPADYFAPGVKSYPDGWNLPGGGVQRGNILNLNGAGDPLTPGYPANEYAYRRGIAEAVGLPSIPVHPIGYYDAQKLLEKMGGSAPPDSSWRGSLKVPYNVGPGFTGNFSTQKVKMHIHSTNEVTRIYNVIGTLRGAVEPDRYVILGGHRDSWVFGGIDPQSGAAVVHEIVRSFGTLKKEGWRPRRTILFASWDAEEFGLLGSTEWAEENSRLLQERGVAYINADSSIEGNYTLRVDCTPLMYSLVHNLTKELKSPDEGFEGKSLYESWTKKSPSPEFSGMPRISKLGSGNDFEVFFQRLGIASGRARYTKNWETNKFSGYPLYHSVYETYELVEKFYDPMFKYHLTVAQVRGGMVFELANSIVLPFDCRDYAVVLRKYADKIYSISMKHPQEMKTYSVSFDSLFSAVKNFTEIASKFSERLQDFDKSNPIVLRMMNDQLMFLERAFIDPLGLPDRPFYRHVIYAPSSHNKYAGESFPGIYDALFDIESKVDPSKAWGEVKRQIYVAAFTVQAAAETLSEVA
Procedure: LNCaP cells were plated onto a 24-well poly-D-lysine coated plate for 48 h (400,000/well). […] Nonspecific binding was determined in the presence of 10 μM unlabeled DCFPyL. The assay mixtures were incubated for 1 h at 37°C with gentle agitation followed by 2 washes with cold HEPES buffered saline. A trypsin solution (0.25%, 400 μL) was then added to each well to harvest the cells. Radioactivity was measured by γ-counting, and Ki values were calculated using the “1 site—fit Ki” built-in model in Prism 7 (GraphPad).

[1] = Distribution coefficient (LogD7.4), shake flask method; format: physicochemical; conditions: n-octanol / phosphate buffer 0.1 M pH 7.4; n = 3
Procedure: LogD7.4 values were measured using the shake flask method. Briefly, an aliquot of ^18F-labeled tracer was added to a vial containing 2.5 mL of n-octanol and 2.5 mL of phosphate buffer (0.1 M, pH 7.4). The mixture was vortexed for 2 min and then centrifuged at 3,000g for 10 min. A sample of the n-octanol (0.1 mL) and buffer (0.1 mL) layers was counted using a γ-counter. Values of LogD7.4 were calculated using the following equation: LogD7.4 = log10 [(counts in n-octanol phase)/(counts in buffer phase)].

LNCaP xenografts = assay: Ex vivo biodistribution and blocking studies in mice bearing LNCaP xenografts; conditions: for tumor uptake compared with ^18F-DCFPyL: 1-way ANOVA, Dunnett test; for tumor uptake: LNCaP tumor
Procedure: Imaging and biodistribution experiments were performed using NODSCID IL2RγKO male mice. All experiments were conducted according to the guidelines established by the Canadian Council on Animal Care and approved by the Animal Ethics Committee of the University of British Columbia. Mice were anesthetized by inhalation with 2% isoflurane in oxygen and implanted subcutaneously with 1 × 10^7 LNCaP cells behind the left shoulder. The mice were imaged or used in biodistribution studies once the tumor reached 5–8 mm in diameter (5–6 wk).
For biodistribution and blocking studies, the mice were injected with 1–3 MBq of radiotracer. At 60 min, the mice were anesthetized with 2% isoflurane inhalation and euthanized by CO2 inhalation. Blood was withdrawn by cardiac puncture, and the organs and tissues of interest were collected, weighed, and counted using an automatic γ-counter (PerkinElmer). Uptake values were expressed as the percentage of the injected dose per gram of tissue (%ID/g).
A standard 1-way ANOVA was performed to determine whether statistically significant differences in tumor uptake occurred between radiotracers. Each radiotracer was compared with ^18F-DCFPyL using the Dunnett test (a many-to-one t test comparison). This analysis was also performed for kidney and blood activity and for tumor-to-blood and tumor-to-muscle ratios. Reported P values were adjusted for multiple comparisons. The analysis was performed using Prism 8 (GraphPad). […]
Statistical analyses were performed using GradPad prism 7. Multiple t tests were performed to compare biodistribution in unblocked and blocked mice, multiple comparisons were corrected using the Holm-Sidak method. The difference was considered statistically significant when p value was < 0.05.
Supplemental Table 1 – Complete biodistribution study for compounds [18F]1–3 […]
Tissue 1h 1h blocked 1h 1h blocked 1h 1h blocked
(%ID/g) n = 8 n = 4 n = 6 n = 4 n = 8 n = 5 […]
(1 picture or pasted object on this page, not shown here)

[2] = 1 h blocked (coinjection of DCFPyL 0.5 mg)

SMILES: C[N+](C)(Cc1ccc(C(=O)NCCCC[C@H](NC(=O)N[C@@H](CCC(=O)O)C(=O)O)C(=O)O)cc1)C[B-](F)(F)F [^18F-1]
Ki (PSMA; LNCaP cells, 0.1 nM ^18F-DCFPyL radioligand, 1 h at 37°C, n = 3): 14.4 ± 2.7 nM
LogD7.4 [1]: −3.43 ± 0.35
T/B (tumor-to-blood ratio) (LNCaP xenografts; 1 h after injection, unblocked): 10.82 ± 1.64
T/K (tumor-to-kidney ratio) (LNCaP xenografts; 1 h after injection, unblocked): 0.07 ± 0.06
T/M (tumor-to-muscle ratio) (LNCaP xenografts; 1 h after injection, unblocked): 23.43 ± 3.71
adrenal uptake (LNCaP xenografts; 1 h after injection, unblocked): 4.77 ± 1.75 %ID/g
blood uptake (LNCaP xenografts; 1 h after injection, unblocked): 0.57 ± 0.15 %ID/g
bone uptake (LNCaP xenografts; 1 h after injection, unblocked): 0.36 ± 0.02 %ID/g
brain uptake (LNCaP xenografts; 1 h after injection, unblocked): 0.04 ± 0.01 %ID/g
fat uptake (LNCaP xenografts; 1 h after injection, unblocked): 0.99 ± 0.39 %ID/g
heart uptake (LNCaP xenografts; 1 h after injection, unblocked): 0.30 ± 0.06 %ID/g
intestine uptake (LNCaP xenografts; 1 h after injection, unblocked): 0.54 ± 0.11 %ID/g
kidney uptake (LNCaP xenografts; 1 h after injection, unblocked): 114.00 ± 41.30 %ID/g
liver uptake (LNCaP xenografts; 1 h after injection, unblocked): 2.90 ± 0.56 %ID/g
lung uptake (LNCaP xenografts; 1 h after injection, unblocked): 1.37 ± 0.36 %ID/g
muscle uptake (LNCaP xenografts; 1 h after injection, unblocked): 0.26 ± 0.08 %ID/g
pancreas uptake (LNCaP xenografts; 1 h after injection, unblocked): 0.55 ± 0.16 %ID/g
spleen uptake (LNCaP xenografts; 1 h after injection, unblocked): 2.67 ± 0.98 %ID/g
stomach uptake (LNCaP xenografts; 1 h after injection, unblocked): 0.12 ± 0.05 %ID/g
testes uptake (LNCaP xenografts; 1 h after injection, unblocked): 0.62 ± 0.15 %ID/g
tumor uptake compared with ^18F-DCFPyL (LNCaP xenografts; 1 h after injection): lower tumor uptake than ^18F-DCFPyL
T/B (tumor-to-blood ratio) (LNCaP xenografts; [2]): 0.91 ± 0.44
T/K (tumor-to-kidney ratio) (LNCaP xenografts; [2]): 0.10 ± 0.03
T/M (tumor-to-muscle ratio) (LNCaP xenografts; [2]): 2.63 ± 1.10
adrenal uptake (LNCaP xenografts; [2]): 0.35 ± 0.14 %ID/g
blood uptake (LNCaP xenografts; [2]): 0.45 ± 0.27 %ID/g
bone uptake (LNCaP xenografts; [2]): 0.30 ± 0.07 %ID/g
brain uptake (LNCaP xenografts; [2]): 0.03 ± 0.01 %ID/g
fat uptake (LNCaP xenografts; [2]): 0.14 ± 0.08 %ID/g
heart uptake (LNCaP xenografts; [2]): 0.15 ± 0.04 %ID/g
intestine uptake (LNCaP xenografts; [2]): 0.57 ± 0.23 %ID/g
kidney uptake (LNCaP xenografts; [2]): 3.54 ± 0.83 %ID/g
liver uptake (LNCaP xenografts; [2]): 3.00 ± 0.53 %ID/g
lung uptake (LNCaP xenografts; [2]): 0.25 ± 0.06 %ID/g
muscle uptake (LNCaP xenografts; [2]): 0.13 ± 0.03 %ID/g
pancreas uptake (LNCaP xenografts; [2]): 0.11 ± 0.03 %ID/g
spleen uptake (LNCaP xenografts; [2]): 0.13 ± 0.03 %ID/g
stomach uptake (LNCaP xenografts; [2]): 0.11 ± 0.08 %ID/g
testes uptake (LNCaP xenografts; [2]): 0.10 ± 0.02 %ID/g
tumor uptake (LNCaP xenografts; 1 h after injection, unblocked): 6.0 ± 1.2 %ID/g
tumor uptake (LNCaP xenografts; 1 h after injection, unblocked, listed as [18F]1): 6.04 ± 1.24 %ID/g
tumor uptake (LNCaP xenografts; [2]): 0.33 ± 0.07 %ID/g

Ki (PSMA): 11.8 ± 0.9 nM
logD at 2 min [1]: -4.26 ± 0.04
T/B (tumor-to-blood ratio) (LNCaP xenografts; 1 h after injection, unblocked): 15.95 ± 1.37
T/K (tumor-to-kidney ratio) (LNCaP xenografts; 1 h after injection, unblocked): 0.12 ± 0.04
T/M (tumor-to-muscle ratio) (LNCaP xenografts; 1 h after injection, unblocked): 37.30 ± 9.53
adrenal uptake (LNCaP xenografts; 1 h after injection, unblocked): 4.65 ± 1.75 %ID/g
blood uptake (LNCaP xenografts; 1 h after injection, unblocked): 0.52 ± 0.06 %ID/g
bone uptake (LNCaP xenografts; 1 h after injection, unblocked): 0.44 ± 0.09 %ID/g
brain uptake (LNCaP xenografts; 1 h after injection, unblocked): 0.04 ± 0.01 %ID/g
fat uptake (LNCaP xenografts; 1 h after injection, unblocked): 0.73 ± 0.26 %ID/g
heart uptake (LNCaP xenografts; 1 h after injection, unblocked): 0.33 ± 0.08 %ID/g
intestine uptake (LNCaP xenografts; 1 h after injection, unblocked): 0.33 ± 0.05 %ID/g
kidney uptake (LNCaP xenografts; 1 h after injection, unblocked): 71.70 ± 18.0 %ID/g
liver uptake (LNCaP xenografts; 1 h after injection, unblocked): 1.69 ± 0.19 %ID/g
lung uptake (LNCaP xenografts; 1 h after injection, unblocked): 1.39 ± 0.17 %ID/g
muscle uptake (LNCaP xenografts; 1 h after injection, unblocked): 0.23 ± 0.04 %ID/g
pancreas uptake (LNCaP xenografts; 1 h after injection, unblocked): 0.33 ± 0.05 %ID/g
spleen uptake (LNCaP xenografts; 1 h after injection, unblocked): 5.01 ± 0.64 %ID/g
stomach uptake (LNCaP xenografts; 1 h after injection, unblocked): 0.10 ± 0.03 %ID/g
testes uptake (LNCaP xenografts; 1 h after injection, unblocked): 0.67 ± 0.17 %ID/g
tumor uptake compared with ^18F-DCFPyL (LNCaP xenografts; 1 h after injection): No statistically significant differences
T/B (tumor-to-blood ratio) (LNCaP xenografts; [2]): 0.77 ± 0.48
T/K (tumor-to-kidney ratio) (LNCaP xenografts; [2]): 0.13 ± 0.02
T/M (tumor-to-muscle ratio) (LNCaP xenografts; [2]): 2.66 ± 1.60
adrenal uptake (LNCaP xenografts; [2]): 0.20 ± 0.05 %ID/g
blood uptake (LNCaP xenografts; [2]): 0.46 ± 0.24 %ID/g
bone uptake (LNCaP xenografts; [2]): 0.30 ± 0.06 %ID/g
brain uptake (LNCaP xenografts; [2]): 0.02 ± 0.00 %ID/g
fat uptake (LNCaP xenografts; [2]): 0.06 ± 0.01 %ID/g
heart uptake (LNCaP xenografts; [2]): 0.09 ± 0.02 %ID/g
intestine uptake (LNCaP xenografts; [2]): 0.31 ± 0.02 %ID/g
kidney uptake (LNCaP xenografts; [2]): 2.11 ± 0.19 %ID/g
liver uptake (LNCaP xenografts; [2]): 1.76 ± 0.17 %ID/g
lung uptake (LNCaP xenografts; [2]): 0.22 ± 0.03 %ID/g
muscle uptake (LNCaP xenografts; [2]): 0.12 ± 0.05 %ID/g
pancreas uptake (LNCaP xenografts; [2]): 0.06 ± 0.01 %ID/g
spleen uptake (LNCaP xenografts; [2]): 0.09 ± 0.03 %ID/g
stomach uptake (LNCaP xenografts; [2]): 0.06 ± 0.02 %ID/g
testes uptake (LNCaP xenografts; [2]): 0.08 ± 0.02 %ID/g
tumor uptake (LNCaP xenografts; 1 h after injection, unblocked, listed as 2): 8.3 ± 1.3 %ID/g
tumor uptake (LNCaP xenografts; 1 h after injection, unblocked, listed as [18F]2): 8.28 ± 1.25 %ID/g
tumor uptake (LNCaP xenografts; [2]): 0.27 ± 0.06 %ID/g
SMILES: C[N+](C)(Cc1cn(Cc2ccc(C(=O)NCCCC[C@H](NC(=O)N[C@@H](CCC(=O)O)C(=O)O)C(=O)O)cc2)nn1)C[B-](F)(F)F [^18F-2]
